The results in this text go back to patent US7666901B2, “Analogs of 17-hydroxywortmannin as PI3K inhibitors” (Wyeth, priority 2004, dated 2010).

In brackets after ≈: the same amount, converted by molar mass. Bounds are passed on as bounds.

The target in one assay is T1, Human TOR (Homo sapiens, UniProt P42345).
T1 construct: FLAG
Description: Human TOR (mTOR) kinase assay, DELFIA format. In kind it is biochemical. Here is the method:
The PI3K/AKT/TOR pathway is critical for cell proliferation, growth, survival, and angiogensis. Accordingly, compounds of the present invention may also be useful to inhibit TOR activity. Similar in vivo and in vitro assays to those described above with reference to PI3K can be used to determine the minimum concentration of compound sufficient to inhibit TOR. A human TOR assay and a Rat1-IGF1 assay as described in Examples 67 and 68, respectively was performed with some embodiments of the invention. The results of these assays are shown below in Tables 1 and 2.
Human TOR assays (See Toral-Barza, et al. Biochem Biophys. Res. Commun. 2005 Jun. 24; 332(1):304-10) with purified enzyme are performed in 96-well plates by DELFIA format as follows. Enzymes are first diluted in kinase assay buffer (10 mM Hepes (pH 7.4), 50 mM NaCl, 50 mM b-glycerophosphate, 10 mM MnCl2, 0.5 mM DTT, 0.25 mM microcystin LR, and […] BSA). To each well, 12 mL of the diluted enzyme is mixed briefly with 0.5 mL test inhibitor or control vehicle dimethylsulfoxide (DMSO). The kinase reaction is initiated by adding 12.5 mL kinase assay buffer containing ATP and His6-S6K to give a final reaction volume of 25 mL containing 800 ng/mL FLAG-TOR, […] ATP and […] His6-S6K. The reaction plate is incubated for 2 hours (linear at 1-6 hours) at room temperature with gentle shaking and then terminated by adding 25 mL Stop buffer (20 mM Hepes (pH 7.4), 20 mM EDTA, 20 mM EGTA). The DELFIA detection of the phosphorylated (Thr-389) His6-S6K is performed at room temperature using a monoclonal anti-P(T389)-p70S6K antibody (1A5, Cell Signaling) labeled with Europium-N1-ITC (Eu) (10.4 Eu per antibody, PerkinElmer). The DELFIA Assay buffer and Enhancement solution can be purchased from PerkinElmer. 45 mL of the terminated kinase reaction mixture is transferred to a MaxiSorp plate (Nunc) containing 55 mL PBS. The His6-S6K is allowed to attach for 2 hours after which the wells are aspirated and washed once with PBS. 100 mL of DELFIA Assay buffer with 40 ng/mL Eu-P(T389)-S6K antibody is added. The antibody binding is continued for 1 hour with gentle agitation. The wells are then aspirated and washed 4 times with PBS containing 0.05% Tween-20 (PBST). […] of DELFIA Enhancement solution is added to each well and the plates are read in a PerkinElmer Victor model plate reader. Data obtained is used to calculate enzymatic activity and enzyme inhibition by potential inhibitors.

Assay [1] relates to MDA468 (human breast cancer cell). The assay is described as follows: Cell proliferation (MTS) assay, MDA468. It counts as cell-based. As to conditions: three days treatment; for IC50: Homo sapiens, 72 h. Here is the method:
(§1) Results of cell proliferation assays for exemplary compounds are shown below in Tables 1 and 2. Cell lines LNCaP (human prostate carcinoma), MDA468 (human breast cancer cell), MDA435 (human breast adenocarcinoma), and DU145 (human prostate carcinoma[…]) were purchased from American Type Culture Collection (ATCC) (Rockville, Md.). Cells were cultured in RPMI Medium 1640 containing 10% fetal bovine serum (FBS) in a 37° C. incubator containing 5% CO2. All cell culture reagents were purchased from Gibco-BRL (Grand Island, N.Y.). Cells were plated in 96-well culture plates at about 3000 cells per well. One day following plating, compounds or vehicle controls (buffer only) were added to cells. Proliferation assays were performed three days post initiation of treatment.
(§2) For a non-radioactive cell proliferation assay, viable cell densities are determined by measuring metabolic conversion (by viable cells) of the dye MTS tatrazolium dye, a cell proliferation assay known by one of skill in the art (MTS assay), a previously established cell proliferation assay. The assay is performed using an assay kit (Promega Corp., Madison, Wis.). The assay plates are incubated for 1-2 hours, and the results are read in a 96-well format plate reader by measuring absorbance at 490 nm. Effect of each compound is calculated as a percentage of control cell growth obtained from vehicle-treated cells grown in the same plate.

Assay [2] deals with MDA435 (human breast adenocarcinoma). The assay is described as follows: Cell proliferation (MTS) assay, MDA435. It counts as cell-based. As to conditions: three days treatment; for IC50: Homo sapiens, MDA435, 72 h. As for the experimental part: as §1, §2
Assay [3] relates to phosphor-AKT (S473) in Rat1 cells. Description: Rat1-IGF1 assay (IGF-1 induced phospho-AKT immunoblot). It counts as cell-based, rat. As to conditions: Rattus norvegicus. As for the experimental part: Rat1 cells are plated in 6-well culture plates and serum-starved for 24 hours. Serum-starved cells are treated either with control vehicle or with various concentrations of 17-HWT for 2 hours, stimulated by IGF-1 (100 ng/mL) for 30 minutes. Total cellular lysates are prepared using NuPAGE-LDS sample buffer (Invitrogen), sonicated and then clarified by centrifugation. Equal amounts of proteins are subject to immunoblotting analysis using NuPAGE electrophoresis system and probed with phosphor-AKT (S473), total AKT antibodies (Signaling Technology).

Assay [4] deals with DU145 (human prostate carcinoma/lymphocytic leukemia). Description: Cell proliferation (MTS) assay, DU145. In kind it is cell-based. As to conditions: three days treatment; for IC50: Homo sapiens, DU-145, 72 h. As for the experimental part: as §1, §2
For assay [5], the system named is LNCaP (human prostate carcinoma). The assay is described as follows: Cell proliferation (MTS) assay, LNCaP. It counts as cell-based. As to conditions: three days treatment; for IC50: Homo sapiens, LNCaP, 72 h. Here is the method: as §1, §2
The subject of a further assay is T2, PI3K.
T2 construct: PI3K FP IC50
The assay is described as follows: Fluorescence polarization assay for PI3K. It counts as biochemical. As to conditions: for PI3K FP IC50: Table 1. Here is the method: This assay is used to determine the IC50 of compounds of the present invention as it identifies inhibitors of PI3 kinase by measuring inhibition.
The assay is run by placing 5 μL of diluted enzyme per well, then 5 μL of diluted compound (or 9.5 μL enzyme then 0.5 μL compound in DMSO) is added and mixed. Then, 10 μL substrate is added to start the reaction. The samples are incubated 30-60 minutes, then the reaction is stopped by adding 20 μL stop/detector mix.
PI3K is diluted with reaction buffer (e.g., 5 μL or 7.5 μL PI3K into 620 μL reaction buffer), and 5 μL of diluted enzyme is used per well. 5 μL reaction buffer or drug diluted in buffer (e.g., 4 μL/100 so final DMSO is 1% in reaction) is added to each. The samples are mixed by pipetting up and down. Alternatively, the enzyme can be diluted to 1215 μL. In this case 9.8 μL is added per well and 0.2 μL compound is added in DMSO.
To prepare 1 mL of substrate solution, 955 μL reaction buffer, 40 μL PIP2, and 2.5 μL ATP are mixed. 10 μL of substrate is added to each well to start the reaction.
Stop/detector mix is prepared by mixing 4 μL Red detector and 1.6 μL or 2.0 μL GST-GRP with 1 mL Stop buffer, which results in 10 nM probe and 70 nM GST-GRP). 20 μL of the stop/detector mix is added to each well to stop the reaction. The plates are read after 30-90 minutes keeping the red probe solutions dark.
For the zero time point, stop/detector mix is added to the enzyme just before adding substrate. For an extra control, stop/detector mix is added to buffer (no enzyme) and substrate or to just buffer (no substrate).
The recommended reaction has 0.06 μL per 20 μL (0.015 μg/20 μL) or 0.01125 μg/15 μL or 0.75 μg/mL.
Plates are read on machines with filters for Tamra. The units are mP with no enzyme controls reading app 190-220 mP units. Fully active enzyme reduces fluorescence polarization down to 70-100 mP after 30 minutes. An active cpd raises the mP values halfway to control or to 120-150 mP units.

Consider `COC[C@H]1OC(=O)/C(=C/N(C)CCCN(C)C)C2=C(O)C(=O)C3=C([C@H](OC(C)=O)C[C@@]4(C)C3CC[C@@H]4O)[C@]21C` (stereo partly drawn) [Compound 5, (1E,4S,4aR,5R,6aS,7S)-1-{[[3-(dimethylamino)propyl](methyl)amino]methylene}-7,11-dihydroxy-4-(methoxymethyl)-4a,6a-dimethyl-2,10-dioxo-1,2,4,4a,5,6,6a,7,8,9,9a,10-dodecahydroindeno[4,5-h]isochromen-5-yl acetate], for which the IC50 at Human TOR (Table 1) is 2.56 µM; against Human TOR (Table 2) it was 1.28 µM; in assay [1] (Table 1) it was 1.8 µg/mL; in assay [1] (Table 2), 2 µg/mL; in assay [2] (Table 1), 15 µg/mL; in assay [2] (Table 2), 8.2 µg/mL. For the same compound, the IC50 amounted to 0.02 µg/mL in assay [3] (Table 1); 10 µg/mL in assay [4] (Table 1); 9.5 µg/mL in assay [4] (Table 2); 0.4 µg/mL in assay [5] (Table 1); 0.28 µg/mL in assay [5] (Table 2).
With `COC[C@H]1OC(=O)/C(=C/N2CCN(C3CCCCC3)CC2)C2=C(O)C(=O)C3=C([C@H](OC(C)=O)C[C@@]4(C)C3CC[C@@H]4O)[C@]21C` (stereo partly drawn) [Compound 7, (1E,4S,4aR,5R,6aS,7S)-1-[(4-cyclohexylpiperazin-1-yl)methylene]-7,11-dihydroxy-4-(methoxymethyl)-4a,6a-dimethyl-2,10-dioxo-1,2,4,4a,5,6,6a,7,8,9,9a,10-dodecahydroindeno[4,5-h]isochromen-5-yl acetate], the IC50 against Human TOR (Table 1) is 0.818 µM; in assay [1] (Table 1) it was 2 µg/mL; in assay [2] (Table 1) it was greater than 15 µg/mL; in assay [3] (Table 1) it was 0.02 µg/mL; in assay [4] (Table 1), greater than 15 µg/mL; in assay [5] (Table 1), 0.88 µg/mL.
On to `COC[C@H]1OC(=O)/C(=C\NCCOCCOCCNC(=O)CCCC[C@H]2SC[C@H]3NC(=O)N[C@H]32)C2=C(O)C(=O)C3=C([C@H](OC(C)=O)C[C@@]4(C)C3CC[C@@H]4O)[C@]21C` (stereo partly drawn) [Compound 51, (1Z,4S,4aR,5R,6aS,7S)-7,11-dihydroxy-4-(methoxymethyl)-4a,6a-dimethyl-2,10-dioxo-1-{12-oxo-16-[(3aR,4R,6aS)-2-oxohexahydro-1H-thieno[3,4-d]imidazol-4-yl]-5,8-dioxa-2,11-diazahexadec-1-ylidene}-1,2,4,4a,5,6,6a,7,8,9,9a,10-dodecahydroindeno[4,5-h]isochromen-5-yl acetate], for which the IC50 in assay [1] (Table 2) was 30 µg/mL; in assay [3] (Table 2), greater than 0.2 µg/mL; in assay [5] (Table 2) it was 2.8 µg/mL.
Take `CCCCSC=C1C(=O)OC(COC)C2(C)C1=C(O)C(=O)C1=C2C(OC(C)=O)CC2(C)C(O)CCC12` (stereo not shown) [Compound 52, Acetic acid 4-butylsulfanylmethylene-6,17-dihydroxy-1-methoxymethyl-10,13-dimethyl-3,7-dioxo-1,3,4,7,10,11,12,13,14,15,16,17-dodecahydro-2-oxa-cyclopenta[a]phenanthren-11-yl ester]: the IC50 against Human TOR (Table 1) was 2.5 µM; in assay [1] (Table 1), 3.85 µg/mL (≈ 7.39 µM); in assay [5] (Table 1) it was 0.25 µg/mL (≈ 0.48 µM). The “PI3K FP IC50” value in the assay with PI3K came out at 0.043 µg/mL.
On to `COC[C@H]1OC(=O)/C(=C/N(C)CCCN(C)C)C2=C(O)C(=O)C3=C([C@H](O)C[C@@]4(C)C3CC[C@@H]4O)[C@]21C` (stereo partly drawn) [Compound 60, (1E,4S,4aR,5R,6aS,7S)-1-{[[3-(dimethylamino)propyl](methyl)amino]methylene}-5,7,11-trihydroxy-4-(methoxymethyl)-4a,6a-dimethyl-4a,5,6,6a,7,8,9,9a-octahydroindeno[4,5-h]isochromene-2,10(1H,4H)-dione], for which the IC50 against Human TOR (Table 2) was 0.396 µM; in assay [1] (Table 2), 2 µg/mL (≈ 3.96 µM); with PI3K (Table 2), 0.007 µM; in assay [5] (Table 2) it was 0.33 µg/mL (≈ 0.654 µM).
Take “(1E,4S,4aR,5R,6aS,7S)-1-[(diallylamino)methylene]-7-(formyloxy)-11-hydroxy-4-(methoxymethyl)-4a,6a-dimethyl-2,10-dioxo-1,2,4,4a,5,6,6a,7,8,9,9a,10-dodecahydroindeno[4,5-h]isochromen-5-yl acetate [Compound 17]”: the “TOR IC50” value at Human TOR (Table 1) worked out at 1.3 µg/mL. The “MDA468 IC50” value in assay [1] (Table 1) is 0.5 µg/mL. For the same compound, the “MDA435 IC50” value in assay [2] (Table 1) was determined as 7 µg/mL. Besides, the “PI3K FP IC50” value in the assay on PI3K came out at 0.607 µg/mL. The “DU145 IC50” value in assay [4] (Table 1) was 3 µg/mL. Moreover, in assay [5] (Table 1), the “LNCaP IC50” value turned out to be 0.14 µg/mL.
With “(1E,4S,4aR,5R,6aS,7S)-7-(formyloxy)-11-hydroxy-4-(methoxymethyl)-4a,6a-dimethyl-2,10-dioxo-1-(pyrrolidin-1-ylmethylene)-1,2,4,4a,5,6,6a,7,8,9,9a,10-dodecahydroindeno[4,5-h]isochromen-5-yl acetate [Compound 16]”, at Human TOR (Table 1), the “TOR IC50” value stood at 8 µg/mL. Further, the “MDA468 IC50” value in assay [1] (Table 1) worked out at 0.28 µg/mL. Besides, the “MDA435 IC50” value in assay [2] (Table 1) was 5.5 µg/mL. Further, the “PI3K FP IC50” value in the assay with PI3K was 1.994 µg/mL. Besides, in assay [4] (Table 1), the “DU145 IC50” value was determined as 1.3 µg/mL. Further, the “LNCaP IC50” value in assay [5] (Table 1) was found to be 0.08 µg/mL.
